Where two headings read alike, the source gives them in different places.
Key:
[1] = oral; cited from earlier work
[2] = Comparative bioavailability: baclofen plasma levels after oral baclofen or example 15; type: in vivo; details: 20 ug/kg, baclofen dosed 20 mcg/kg p.o.
Description: (§1) The prodrugs compounds of the present invention, i.e. the compounds of formula-I release in-vivo the compounds of formula III. Two of the representative compounds of the present invention i.e. compound of example 5 and compound 15, were tested to determine the comparative bioavailability of the drug and the prodrug. The following method was employed for the determination of bioavailability of the test compound of example 5.
(§2) Table 1 and Table 2 below provide Dose-concentration data for the representative compounds 5 and compound 15 of the invention, which are prodrugs of gabapentin and baclofen respectively.

mouse = details: cited from earlier work
[3] = Comparative bioavailability: LC-MS determination of gabapentin in plasma after oral gabapentin or example 5; type: in vivo; details: for dose dependence of bioavailability / absorption (in words): data of Table 1, 50 and 100 mg/kg p.o.; for AUC(0-t): po, t = 24 hrs, plasma
Description: as §1
Liquid Chromatography Mass Spectrometric Method for the Determination of Gabapentin from Example 5 in Plasma.
Mobile phase: Prepare 2 mM ammonium acetate solution in milliQ water and adjust the pH to 3.0 with formic acid. Mix above buffer solution and acetonitrile in the ratio (30:70 v/v) and filter.
Column: Hypurity C18, 50×2.1 mm, 5μ; Column oven temperature: 40° C.; Flow rate: 0.25 ml/min; Injection volume: 10 μl; Run time: 2.0 min.; Retention time: Example 5: 1.0 min.; Gabapentin: 1.0 min.; Carbamazepine: 1.0 min.;
Mass Parameters: Spray Voltage: 3500 V; Sheath Gas Pressure: 35 ml/min; Capillary Temperature: 380° C.; Mode: Positive; Aux gas pressure: 10 ml/min
For Gabapentin Linearity Range: 200 ng-19600 ng/ml in mobile phase.
For example 5: Linearity Range: 50 ng 5000 ng/ml in mobile phase.
A 100 μl plasma sample and 5 μl of internal standard was taken in a micro centrifuge tube. Vortex for 20-30 sec. The test samples were loaded in preconditioned HLB cartridges. The cartridge was washed with 1 ml Milli-Q water the sample was eluted with 500 μl of mobile phase. The sample was centrifuged at 15000 rpm for 5 minutes and the supernatant was collected for analysis.
as §2

[4] = cited from earlier work

For `NC[C@H]1CC[C@H](C(=O)O)CC1` [Tranexamic acid, trans-4-(aminomethyl)cyclohexanecarboxylic acid], the “orally administered dose absorbed” value [1] is listed as 35-40%.

In the case of `NCC(CC(=O)O)c1ccc(Cl)cc1` (centres unmarked) [Baclofen], the Cmax [2] is reported as 3600 ng/mL and the AUC(0-t) ([2]; t = 24 hrs) is reported as 15000 ng·h/mL.

For `O=C1CC2(CCCCC2)CN1` [corresponding lactam], the LD50 (mouse) is given as 300 mg/kg.

In the case of `NCC1(CC(=O)O)CCCCC1` [Gabapentin, 1-(aminomethyl)cyclohexaneacetic acid], the “dose dependence of bioavailability / absorption (in words)” value [3] is reported as “non-linear saturable absorption, with lower bioavailability at the higher dose”, the AUC(0-t) ([3]; gabapentin dosed 50 mg/kg p.o.) is reported as 85000 ng·h/mL and the AUC(0-t) ([3]; gabapentin dosed 100 mg/kg p.o.) is reported as 99000 ng·h/mL. For the same compound, the oral bioavailability ([4]; 900 mg/day oral) was “approximately 60%”, the oral bioavailability ([4]; 1800 mg/day oral) was about 27% and the LD50 (mouse) was over 8000 mg/kg.

In the case of `CCOC(=O)C(C)=NOC(=O)NCC1(CC(=O)O)CCCCC1` [Example 5, N-[(Ethyl oximinopropionate-2-yl)carbonyl]-1-aminomethyl cyclohexaneacetic acid], the “dose dependence of bioavailability / absorption (in words)” value [3] is reported as “dose-proportional bioavailability”.

From US20100145057A1, “NOVEL PRODRUGS” (SUN PHARMA ADVANCED RESEARCH COMPANY LTD., priority 2007, published 2010)
